# pIC50: −log10 of the molar value. Where a name gives a salt, the structure may show the parent alone.
# Target: recombinant human cathepsin C (Homo sapiens, UniProt P53634)
# Assay: Recombinant Cathepsin C In Vitro Assay (cleavage of fluorogenic substrate H-Ser-Tyr-AMC)
# Type: biochemical
# Conditions: 24 pM enzyme, pH 5.5, one hour preincubation with compound at room temperature, read-out: concentration at which 50% cathepsin C inhibition is exhibited
# Protocol: C. Recombinant Cathepsin C In Vitro Assay:
# The activity of recombinant human cathepsin C was measured by the cleavage of a fluorogenic substrate, H-Ser-Tyr-AMC. Briefly, 24 pM cathepsin C was incubated with test compound (e.g. inhibitor) in a buffer consisting of 50 mM sodium acetate, 30 mM sodium chloride, 1 mM CHAPS, 1 mM dithiothreitol, 1 mM EDTA, pH 5.5 at room temperature for one hour. After one hour of incubating test compound with cathepsin C, the activity assay was initiated by the addition of an equal volume of 0.010 mM H-Ser-Tyr-AMC in the same buffer. After one hour, the activity assay was stopped by the addition of ⅕ volume of 100 μM E-64. The reaction product was measured on a fluorescence reader set at an excitation wavelength of 360 nm and emission wavelength of 460 nm and equipped with a 400 nm dichroic mirror.
# Sequence of recombinant human cathepsin C (P53634 25-463): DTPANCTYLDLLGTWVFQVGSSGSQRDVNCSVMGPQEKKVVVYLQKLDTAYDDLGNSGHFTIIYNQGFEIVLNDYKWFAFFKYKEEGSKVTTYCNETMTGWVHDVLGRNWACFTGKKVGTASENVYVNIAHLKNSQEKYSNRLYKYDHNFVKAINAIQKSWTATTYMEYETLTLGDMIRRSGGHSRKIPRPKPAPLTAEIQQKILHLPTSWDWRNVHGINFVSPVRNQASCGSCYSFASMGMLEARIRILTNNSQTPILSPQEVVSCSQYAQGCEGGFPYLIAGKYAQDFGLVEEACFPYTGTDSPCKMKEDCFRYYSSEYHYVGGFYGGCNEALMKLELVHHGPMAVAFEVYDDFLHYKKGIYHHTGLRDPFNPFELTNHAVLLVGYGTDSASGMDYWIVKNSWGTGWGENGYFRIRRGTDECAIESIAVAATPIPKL
row,pIC50,SMILES
1,~6.00,"C[C@H](N)C(=O)N[C@H](/C=C/C(=O)N(C)C)CCc1ccccc1 [Example 3, (2E,4S)-4-(L-alanylamino)-N,N-dimethyl-6-phenyl-2-hexenamide hydrochloride]"
2,~7.00,"C[C@H](N)C(=O)N[C@H](/C=C/C(=O)NCc1ccccc1)CCc1ccccc1 [Example 1, (2E,4S)-4-(L-alanylamino)-6-phenyl-N-(phenylmethyl)-2-hexenamide hydrochloride]"

# Source: patent US20120142668A1, “CATHEPSIN C INHIBITORS” (priority 2009, published 2012)
